Assay results as given in US20150231117A1 (Array BioPharma Inc., priority 2012, published 2015).

Columns and labels:
[1] = tested on: NCI H929 MM cells; test: 3 day Cell Titer Blue viability assay with added AAG, NCI H929; type: cell-based, human
Description: (§1) Kit: Cell Titer-Blue Cell Viability Assay, Promega Corp. (Madison Wis.) Catalog No. G8081

[2] = tested on: Patients with Relapsed or Refractory Multiple Myeloma; test: Clinical study in patients with relapsed or refractory multiple myeloma, analysed by baseline [AAG]; type: in vivo, human
Method: The R&D Systems, Inc. (Minneapolis, Minn.) Quantikine® Human α1-Acid Glycoprotein Immunoassay (Catalog No. DAGPOO) is a 4.5 hour solid-phase ELISA designed to measure human AAG in cell culture supemates, serum, plasma, and urine. This assay employed the quantitative sandwich enzyme immunoassay technique. […] Standards and samples are pipetted into the wells, and any AAG present is bound by the immobilized antibody. After washing away any unbound substances, an enzyme-linked polyclonal antibody specific for AAG is added to the wells. Following a wash to remove any unbound antibody-enzyme reagent, a substrate solution is added to the wells, and color develops in proportion to the amount of AAG bound in the initial step. The color development is stopped, and the intensity of the color is measured. The assay was performed as described in the package insert, except where described otherwise below.

[3] = tested on: RPMI-8226 MM cells; test: Cell Titer Blue viability assay with added AAG, RPMI 8226; type: cell-based, human
Description: as §1

[4] = biological target: T1, HSA (Homo sapiens, UniProt P02768); test: TRANSIL binding assay, HSA; conditions: PBS pH 7.4, 2 μM drug
T1 construct: purchased ADMEcell (Alameda, Calif.) TBP-0210-0096 / TBP-0210-1196
T1 sequence (P02768 25-609): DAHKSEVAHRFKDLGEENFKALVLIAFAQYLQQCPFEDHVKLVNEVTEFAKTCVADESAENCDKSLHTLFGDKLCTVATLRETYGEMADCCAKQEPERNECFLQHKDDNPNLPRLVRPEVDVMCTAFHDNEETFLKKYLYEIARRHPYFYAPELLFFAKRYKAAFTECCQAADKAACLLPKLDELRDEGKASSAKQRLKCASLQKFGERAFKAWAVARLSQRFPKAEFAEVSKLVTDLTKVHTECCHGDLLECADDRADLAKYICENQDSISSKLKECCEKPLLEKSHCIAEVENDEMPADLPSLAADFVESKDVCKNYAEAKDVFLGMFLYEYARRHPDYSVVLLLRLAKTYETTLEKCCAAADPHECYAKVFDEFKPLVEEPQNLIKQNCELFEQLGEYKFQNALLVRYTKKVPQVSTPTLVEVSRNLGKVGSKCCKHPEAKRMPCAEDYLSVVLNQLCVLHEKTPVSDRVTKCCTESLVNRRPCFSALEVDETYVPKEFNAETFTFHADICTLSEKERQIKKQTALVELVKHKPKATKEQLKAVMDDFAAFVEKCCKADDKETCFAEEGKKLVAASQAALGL
Method: (§2) TRANSIL® Binding Methodology (www.admecell.com)—Assay Buffers: phosphate buffered saline (“PBS”), pH 7.4 (Gibco 10010) and dimethylsulfoxide (“DMSO”). Plates: Ordered from ADMEcell (Alameda, Calif.). AGP—Full Plate: TBP-0211-0096; AGP—Strip Plate: TBP-0211-1196; HSA—Full Plate: TBP-0210-0096; HSA—Strip Plate: TBP-0210-1196. Stop Solution: 100% Acetonitrile spiked with Internal Standard (0.4 μM final concentration).
(§3) Drug Dilution: Dilution of drug samples to make a final 2 μM drug concentration (1% DMSO) (used 360 μL of final diluted drug per protein testing, i.e., 720 μL to run both AAG and HSA). Brought drug up to a 10 mM stock solution in DMSO. Diluted 10 mM stock to a 200 μM (0.2 mM) stock solution (added 4 μL of 10 mM stock solution into 196 μL, of DMSO). Diluted 200 μM stock to a 20 μM stock solution (added 100 μL of 200 μM DMSO stock solution into 900 μL of PBS Buffer, pH 7.4).
(§4) Thawed the assay kit either at room temperature (approximately 3 hours) or in the refrigerator at 4° C. overnight. The plates were put in the incubator, CO2 (5%) for 30 minutes prior to addition of compound. A pre-dilution of the compounds (10-fold assay concentration) were prepared, see Drug Dilution step above. […] Test article solution (45 μL) was added to the tubes/well of the ready-to-use kit and incubated for 2 minutes. […] The concentration of the supernatant was quantified with LC/MS (API4000). […]

[5] = biological target: T2, AAG; test: TRANSIL binding assay, AAG; design: species or system human
T2 construct: other: TRANSIL, PBS pH 7.4, 2 μM drug; other: not for other serum proteins such as albumin; fused on or other part: AGP immobilised on TRANSIL silica beads (ready-to-use kit)
Method: as §2, §3, §4

[6] = biological target: T3, KSP (Homo sapiens, UniProt P52732); test: Estimated in vitro unbound IC50
T3 sequence (P52732 1-1056): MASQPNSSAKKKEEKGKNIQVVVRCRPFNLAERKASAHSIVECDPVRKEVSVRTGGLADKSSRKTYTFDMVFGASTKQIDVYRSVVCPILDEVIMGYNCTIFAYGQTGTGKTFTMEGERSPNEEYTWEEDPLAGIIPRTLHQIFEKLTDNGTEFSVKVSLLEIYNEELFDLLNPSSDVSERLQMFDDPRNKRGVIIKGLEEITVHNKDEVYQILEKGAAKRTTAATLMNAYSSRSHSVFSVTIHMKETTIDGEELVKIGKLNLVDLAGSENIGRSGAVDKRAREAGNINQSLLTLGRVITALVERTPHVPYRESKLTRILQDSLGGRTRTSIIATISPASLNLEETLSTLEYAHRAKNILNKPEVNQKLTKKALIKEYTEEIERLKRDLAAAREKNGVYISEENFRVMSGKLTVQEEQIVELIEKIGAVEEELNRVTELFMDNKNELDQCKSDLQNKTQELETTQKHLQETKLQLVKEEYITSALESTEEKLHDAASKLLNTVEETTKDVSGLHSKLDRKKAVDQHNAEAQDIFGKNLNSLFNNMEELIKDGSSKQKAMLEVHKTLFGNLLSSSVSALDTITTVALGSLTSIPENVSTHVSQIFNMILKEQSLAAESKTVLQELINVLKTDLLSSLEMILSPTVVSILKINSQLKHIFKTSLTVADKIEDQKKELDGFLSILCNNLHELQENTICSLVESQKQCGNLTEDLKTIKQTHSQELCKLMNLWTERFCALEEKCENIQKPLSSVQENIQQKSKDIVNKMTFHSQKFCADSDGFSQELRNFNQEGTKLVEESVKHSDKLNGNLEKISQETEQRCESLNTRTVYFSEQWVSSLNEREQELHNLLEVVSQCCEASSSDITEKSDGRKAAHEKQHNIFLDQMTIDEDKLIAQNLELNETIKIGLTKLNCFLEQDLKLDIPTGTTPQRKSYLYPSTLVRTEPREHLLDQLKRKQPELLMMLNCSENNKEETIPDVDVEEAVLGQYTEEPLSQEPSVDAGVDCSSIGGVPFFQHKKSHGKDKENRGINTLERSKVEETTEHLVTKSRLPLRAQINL
Method: Model optimization was accomplished using the QRPEM engine of Phoenix 6.3 (Pharsight Corporation, St. Louis, Mo.). Model selection was based on AIC comparisons and diagnostic plots. Simulations were for a typical patient receiving Phase 2 dose of 1.5 mg/m^2 on day 1 and day 2 with varying [AAG].

[7] = Dose limiting toxicity; conditions: in vivo
Description: As such, prophylactic granulocyte colony-stimulating factory (“G-CSF”) may be administered.

[8] = % Fu to human plasma; type: in vitro ADME; conditions: human plasma (ready-to-use bead-based binding assay kit)
Method: Thawed the assay kit either at room temperature (approximately 3 hours) or in the refrigerator at 4° C. overnight. The plates were put in the incubator, CO2 (5%) for 30 minutes prior to addition of compound. A pre-dilution of the compounds (10-fold assay concentration) were prepared, see Drug Dilution step above. The drug dilutions were warmed in a 37° C. water bath prior to dosing compound into plate. Caution: Check carefully the pre-dilution for any precipitation and ensure a sufficient buffer solubility and stability of your test article. Test article solution (45 μL) was added to the tubes/well of the ready-to-use kit and incubated for 2 minutes. Mixed ten times by re-suspending the beads. Re-suspended approximately half of the total volume of the vial (total volume is 450 μL). […] The vials were spun with a swing-out centrifuge for 10 minutes at 750 g. 100 μL was carefully transferred to 96-well plate. Acetonitrile (50 μL) was added with labetalol as the internal standard (0.4 μM final concentration). The plates were sealed for analysis. The concentration of the supernatant was quantified with LC/MS (API4000). See also, Brown, Karin D. supra. The result is in Table 1. pKa value was estimated using ACD/pKa DB software. Calculations: [formula]

[9] = Phase 2 + dex (with dexamethasone), All Patients, n=18
[10] = Phase 2 + dex (with dexamethasone), [AAG] <1.1 g/L, n=12
[11] = Phase 2 Single Agent, All Patients, n=27
[12] = Phase 2 Single Agent, [AAG] <1.1 g/L, n=21

## CON(C)C(=O)N1N=C(c2cc(F)ccc2F)S[C@@]1(CCCN)c1ccccc1.Cl [ARRY-520, (S)-2-(3-Aminopropyl)-5-(2,5-difluorophenyl)-N-methoxy-N-methyl-2-phenyl-1,3,4-thiadiazole-3(2H)-carboxamide]
[1]; AAG 0.5-4 mg/mL final concentration, FIG. 1
  decrease of cellular sensitivity to ARRY-520 as [AAG] increases: greater than 30 fold
[1]; NCI H929
  effect of increasing AAG levels on cell sensitivity: decrease cell sensitivity
[2]; Phase 1, All Patients, n=27
  Median Time on Study (months): 3.9 months
  ≧MR, number of patients: 4
  ≧MR, rate: 15%
  ≧PR, number of patients: 3
  ≧PR, rate: 11%
[2]; Phase 1, [AAG] <1.1 g/L, n=20
  Median Time on Study (months): 5.2 months
  ≧MR, number of patients: 4
  ≧MR, rate: 20%
  ≧PR, number of patients: 3
  ≧PR, rate: 15%
[2]; [9]
  Median Time on Study (months): 3.9 months
  ≧MR, number of patients: 6
  ≧MR, rate: 33%
  ≧PR, number of patients: 4
  ≧PR, rate: 22%
[2]; [10]
  Median Time on Study (months): 6.2 months
  ≧MR, number of patients: 6
  ≧MR, rate: 50%
  ≧PR, number of patients: 4
  ≧PR, rate: 33%
[2]; [11]
  Median Time on Study (months): 2.8 months
  ≧MR, number of patients: 6
  ≧MR, rate: 22%
  ≧PR, number of patients: 5
  ≧PR, rate: 19%
[2]; [12]
  Median Time on Study (months): 3.4 months
  ≧MR, number of patients: 6
  ≧MR, rate: 29%
  ≧PR, number of patients: 5
  ≧PR, rate: 24%
[2]; baseline [AAG] greater than 1.1 g/L, FIG. 5
  time to coming off study, most patients with high baseline [AAG]: less than 5 months
[2]; with each 1.0 g/L increase in [AAG], p<0.01
  increase of risk for discontinuing the study: 2.5 fold
[3]
  effect of increasing AAG levels on cell sensitivity: decrease cell sensitivity
[4]
  Kd: 147 µM
[5]; TRANSIL, PBS pH 7.4, 2 μM drug
  Kd: 5 µM
[5]; not for other serum proteins such as albumin
  affinity for AAG in in vitro assays: low micromolar affinity
[6]
  IC50: 0.000438 µM
[7]
  major dose limiting toxicity (DLT): neutropenia
[8]
  fraction unbound at 2 min: 0.07
